What all share (assay type): cell-based, human
For assay [1], the system named is GSCs isolated from U87MG cells. As to the kind of experiment: GSC proliferation, MTS assay. The settings on record: Homo sapiens, U-87 MG, 168 h; seven days of treatment, MTS assay. On the procedure:
(§1) The U87MG cell line was obtained from the National Institute for Cancer Research of Genoa (Italy) and cultured in DMEM 10% FBS and 2 mM glutamine. To isolate GSCs, approximately 2.0×10^6 cells were suspended in 1 mL of a defined serum-free Neural Stem Cell (NSC) medium (Daniele, S., et al., Modulation of A1 and A2B adenosine receptor activity: a new strategy to sensitise glioblastoma stem cells to chemotherapy. Cell death & disease, 2014. 5(11): p. e1539). After 3-4 days of culture, the neurospheres were collected, suspended in NSC medium, dissociated into single cells, and plated for the assays. For the long-term treatment of cells, NSC or complete medium containing drugs was replaced every two to three days.
(§2) The human U87MG cells or GSCs were seeded at a density of 3×10^3 cells/well. After 24 h, the cells were treated from one to seven days with fresh growth medium containing different concentrations of SA16, SA23 or IB35. Following the treatment period, cell proliferation was determined using the MTS assay according to manufacturer's instruction. The absorbance of formazan at […] was measured in a colorimetric assay with an automated plate reader (Victor Wallac 2, Perkin Elmer). The results were calculated by subtracting the mean background from the values obtained from each evaluation and were expressed as the percentage of the control (untreated cells). Sigmoid dose-response curve was generated, from which the IC50 values were derived.
The inhibition of PDK1 has been reported as potentially effective therapeutic approach to reduce self-renewal and propagation of GSCs (Signore, M., et al., Combined PDK1 and CHK1 inhibition is required to kill glioblastoma stem-like cells in vitro and in vivo. Cell death & disease, 2014. 5(5): p. e1223). On this basis, the effects of SA16, SA23 and IB35 on GSCs, isolated from U87MG cells as previously reported, were evaluated (Daniele, S., et al., Modulation of A1 and A28 adenosine receptor activity: a new strategy to sensitise glioblastoma stem cells to chemotherapy. Cell death & disease, 2014. 5(11): p. e1539). U87MG-derived GSCs were incubated with the indicated concentrations of IB35, SA23 or SA16 for four days (FIG. 8) or seven days (FIG. 9). At the end of the treatment periods, cell proliferation was measured using the MTS assay. The data were expressed as a percentage with respect to that of untreated cells (control), which was set to 100%, and are the mean values±SEM of three independent experiments, each performed in duplicate. IC50 values after seven days of treatment were calculated from sigmoid dose-response curve (FIG. 9). The significance of the differences was determined with a one-way ANOVA with Bonferroni post-test (** p<0.01, *** p<0.001 vs. control).
A general note: Tetrazolium dyes change colour on reduction, which living cells bring about.

For assay [2], the system named is U87MG cells. Nature of the assay: Annexin V and 7-AAD staining in U87MG cells (apoptosis). The note with it: 10 μM, 72 h. On the procedure: Dual staining with Annexin V coniugated to fluorescein-isothiocyanate (FITC) and 7-amino-actinomysin (7-AAD) was performed using the commercially available kit (Muse Annexin V and Dead Cell Kit; Merck KGaA, Darmstadt, Germany). U87MG cells or GSCs were treated with DMSO (control), SA16, SA23 or IB35 for 72 h or seven days, respectively. At the end of the treatment periods, the percentages of living, apoptotic and dead cells were acquired and analysed by Muse™ Cell Analyzer as previously described (Daniele, S., et al., Combined inhibition of AKT/mTOR and MDM2 enhances Glioblastoma Multiforme cell apoptosis and differentiation of cancer stem cells. Sci. Rep., 2015. 5.).
It was then investigated whether the reduction in cell proliferation elicited by the PDK1 inhibitors could be associated with apoptosis. U87MG cells were treated for 72 h with DMSO (control), or 10 μM SA16, SA23 or IB35. At the end of the treatment period, the cells were collected, and the level of phosphatidylserine externalisation was evaluated using the Annexin V-staining protocol, as described above (FIG. 3). In FIG. 4 the data are expressed as the percentage of apoptotic cells (the data for the early-stage apoptotic cells shown in white, and the data for the late-stage apoptotic/necrotic cells shown in grey) versus the total number of cells. The data shown represented the mean±SEM of three different experiments. The significance of the differences was determined with a one-way ANOVA with Bonferroni post-test (*** p<0.001 vs. control).

The subject of assay [3] is AKT phosphorylation at Thr308 in U87MG cells. As to the kind of experiment: PDK1 activity in U87MG cells, (T308)AKT phosphorylation ELISA. As for the experimental part: (§3) U87MG cells were cultured in 96-well microplates (5.000 cells/well), and treated for different times with 10 μM SA16, SA23 or IB35. At the end of the treatment period, the GSCs were centrifuged at 500×g for 3 minutes; cells were washed twice using fresh saline, and rapidly fixed with 4% (for adherent U87MG cells) or 8% (for suspension GSCs) formaldehyde to preserve activation of specific protein modification. The activity of PDK1 was assessed measuring the levels of phosphorylated AKT on Thr308, using a specific primary antibodies. The subsequent incubation with a secondary HRP-conjugated antibody and the developing solution allowed the colorimetric quantification of the levels of phosphorylated protein. The relative number of cells in each well was then determined using the Crystal-Violet assay. The results were calculated by subtracting the mean background value from the values obtained under each test condition: values were normalised to the number of cells in each well and were expressed as the percentages of the control (untreated cells) values.
280(4): p. 1107-1115). […] At the end of the treatment periods, the levels of (T308)AKT phosphorylation was evaluated using an ELISA kit, as described above. The data reported in FIG. 5 were expressed as the percentage of phosphorylated (T308)AKT relative to those of untreated cells (control), which were set at 100%, and were the mean values±SEM of three independent experiments performed in triplicate.
A general note: An ELISA detects its analyte on a solid surface through an enzyme-linked reagent.

Assay [4] relates to AKT phosphorylation at Thr308 in GSCs. Nature of the assay: PDK1 activity in GSCs, (T308)AKT phosphorylation ELISA. On the procedure: as §3
The effects of the new compounds on PDK1 activity were investigated by ELISA assays also in GSCs. U87MG-derived CSCs were treated for the indicated times (0-120 min) with NSC medium containing DMSO (control), or 10 μM IIB35, SA23 or SA16. At the end of the treatment periods, the levels of AKT phosphorylation on Thr308 were evaluated using an ELISA assay, as above described. The data were expressed as the percentage of phosphorylated AKT relative to those of untreated cells (control), which were set at 100%, and were the mean values±SEM of three independent experiments performed in triplicate. The data are represented in FIG. 12. The significance of differences was performed using one-way ANOVA with Bonferroni post-test (* p<0.05, ** p<0.01, *** p<0.001 vs. control).

The subject of assay [5] is U87MG cells. As to the kind of experiment: U87MG cell proliferation, MTS assay. The settings on record: Homo sapiens, U-87 MG, 72 h, MTS assay. As for the experimental part: as §1, §2
As representative GBM cell line, the above U87MG cells were used; this human cell line resulted an appropriate model to study the effects of PDK1 inhibition, because it is deficient for the tumour suppressor phosphatase and tensin homologue (PTEN), a negative regulator of the PI3K/AKT pathway (Wang, S. I., et al., Somatic mutations of PTEN in glioblastoma multiforme. Cancer research, 1997. 57(19): p. 4183-4186). To examine the effects of SA16, SA23 and IB35 on GBM cell growth/survival, U87MG cells were incubated with different concentrations of the new compounds (1 nM-10 μM) for 24 and 72 h. Specifically, U87MG cells were treated in complete medium with different concentrations of SA16, SA23 or IB35 (1 nM-10 μM) for 24 h (A) or 72 h (B). At the end of treatment, cell proliferation was measured using the MTS assay. The data are expressed as a percentage with respect to that of untreated cells (control), which was set to 100%, and are the mean values±SEM of three independent experiments, each performed in duplicate. The significance of the differences reported in FIGS. 1 and 2 was determined with a one-way ANOVA with Bonferroni post-test (* p<0.05, **p<0.01, *** p<0.001 vs. control cells).

One molecule from patent US10351548B2, “2-oxo-1,2-dihydropyridine-3-carboxamide compounds and their use as inhibitors of PDK1” (INTERNATIONAL SOCIETY FOR DRUG DEVELOPMENT S.R.L., priority 2015, dated 2019) can be followed below.

The inhibition is the drop in the measured response relative to a control, in per cent.

Like-named read-outs stand apart in the source and are kept apart here.

`O=C1Nc2ccc(NC(=O)[C@H](NC(=O)c3cccn(Cc4ccc(F)c(F)c4)c3=O)c3ccccc3)cc2/C1=C/c1cnc[nH]1` [SA16, (Z)—(R)—N-(2-((3-((1H-imidazol-5-yl)methylene)-2-oxoindolin-5-yl)amino)-2-oxo-1-phenylethyl)-1-(3,4-difluorobenzyl)-2-oxo-1,2-dihydropyridine-3-carboxamide]: the IC50 in assay [1] came to 5.47 ± 0.1 nM; with U87MG cells [5] (read-out: IC50 U87MG), 2050 ± 190 nM; in the assay with U87MG cells [5] (read-out: IC50 U87MG cell proliferation), 2050 ± 190 nM. Further, in the assay with U87MG cells [2], the “phosphatidylserine externalization (early and late apoptosis/death)” value was “significant phosphatidylserine externalization”. The inhibition at 10 µM in assay [3] (Homo sapiens, U-87 MG, U87MG cells, read-out: peak of inhibition (percentage of PDK1 inhibition)) was determined as 33.3 ± 4.5%; in assay [4] (Homo sapiens, read-out: peak of inhibition (percentage of PDK1 inhibition)), 74.8 ± 3%. Further, the “inhibition of AKT phosphorylation at Thr308” value in assay [3] (U87MG, 10 μM, 0-120 min) was “biphasic kinetic”; in assay [4] (10 μM, 0-120 min), “biphasic kinetic”.
